Assays:
[1] = system: ragweed; assay: Test C preemergence; format: in vivo, Ambrosia elation; conditions: preemergence; for Plant response rating, Ragweed: 125 g ai/ha, scale 0 to 100, 0 = no effect, 100 = complete control
Procedure, shortened: (§1)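 Pre- and postemergence greenhouse screen; vehicle was a non-phytotoxic solvent mix with surfactant. Preemergence: treatment applied right after sowing into loam and sand. Postemergence: treated at 1–4 leaves. Visual rating at 13–15 days, 100 = complete control.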

[2] = system: wheat; assay: Test C preemergence; format: in vivo, Triticum aestivum; conditions: preemergence; for Plant response rating, Wheat: 125 g ai/ha, scale 0 to 100, 0 = no effect, 100 = complete control
Procedure, shortened: as §1

[3] = system: pigweed; assay: Test A preemergence; format: in vivo, Amaranthus retroflexus; conditions: preemergence; for Pigweed plant response rating (0 to 100 scale): 125 g ai/ha, visual injury approx. 10 days after treatment; for Pigweed plant response rating: 500 g ai/ha, visual injury after approx. 10 days, 0 to 100 scale (0 no effect, 100 complete control)
Procedure, shortened: (§2)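 Ratings express plant response from 0 (no effect) to 100 (complete control), judged visually against untreated controls after approximately 10 days in the greenhouse. Preemergence applications were made as directed soil sprays onto seeded loam–sand mix, and postemergence applications onto 2–10 cm plants at one- to two-leaf stage.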

[4] = system: corn; assay: Test C postemergence; format: in vivo, Zea mays; conditions: for Plant response rating (scale of 0 to 100 where 0 is no effect and 100 is complete control), Corn: Postemergence, 31 g ai/ha, visually evaluated after 13 to 15 days; for Corn plant response rating / Plant response rating, Corn: postemergence; for Corn plant response rating: 62 g ai/ha, scale 0 to 100
Procedure, shortened: as §1

[5] = system: barnyardgrass; assay: Test A preemergence; format: in vivo, Echinochloa crus-galli; conditions: preemergence
Procedure, shortened: as §2

[6] = system: waterhemp; assay: Test C postemergence; format: in vivo, Amaranthus rudis; conditions: for Plant response rating, Waterhemp / Waterhemp plant response rating: postemergence; for Plant response rating, Waterhemp: 250 g ai/ha, scale 0 to 100 (0 no effect, 100 complete control); for Waterhemp plant response rating: scale 0 to 100
Procedure, shortened: as §1

[7] = system: soybean; assay: Test C preemergence; format: in vivo, Glycine max; conditions: preemergence; for Plant response rating, Soybean: 125 g ai/ha, scale 0 to 100, 0 = no effect, 100 = complete control
Procedure, shortened: as §1

[8] = system: lambsquarters; assay: Test C postemergence; format: in vivo, Chenopodium album; conditions: for Plant response rating (scale of 0 to 100 where 0 is no effect and 100 is complete control), Lambsquarters: Postemergence, 31 g ai/ha, visually evaluated after 13 to 15 days; for Lambsquarters plant response rating / Plant response rating, Lambsquarters: postemergence; for Lambsquarters plant response rating: 62 g ai/ha, scale 0 to 100
Procedure, shortened: as §1

[9] = system: velvetleaf; assay: Test A postemergence; format: in vivo, Abutilon theophrasti
Procedure, shortened: as §2

[10] = system: blackgrass; assay: Test C preemergence; format: in vivo, Alopecurus myosuroides; conditions: preemergence; for Plant response rating, Blackgrass: 125 g ai/ha, scale 0 to 100, 0 = no effect, 100 = complete control
Procedure, shortened: as §1

[11] = system: foxtail, giant; assay: Test C preemergence; format: in vivo, Setaria faberii; conditions: preemergence; for Plant response rating, Foxtail, Giant: 125 g ai/ha, scale 0 to 100, 0 = no effect, 100 = complete control
Procedure, shortened: as §1

[12] = system: velvetleaf; assay: Test A preemergence; format: in vivo, Abutilon theophrasti; conditions: preemergence; for Velvetleaf plant response rating (0 to 100 scale): 125 g ai/ha, visual injury approx. 10 days after treatment; for Velvetleaf plant response rating: 500 g ai/ha, visual injury after approx. 10 days, 0 to 100 scale (0 no effect, 100 complete control)
Procedure, shortened: as §2

[13] = system: pigweed; assay: Test A postemergence; format: in vivo, Amaranthus retroflexus
Procedure, shortened: as §2

[14] = system: johnsongrass; assay: Test C preemergence; format: in vivo, Sorghum halepense; conditions: preemergence; for Plant response rating, Johnsongrass: 125 g ai/ha, scale 0 to 100, 0 = no effect, 100 = complete control
Procedure, shortened: as §1

[15] = system: johnsongrass; assay: Test C postemergence; format: in vivo, Sorghum halepense; conditions: for Plant response rating (scale of 0 to 100 where 0 is no effect and 100 is complete control), Johnsongrass: Postemergence, 31 g ai/ha, visually evaluated after 13 to 15 days; for Johnsongrass plant response rating / Plant response rating, Johnsongrass: postemergence; for Johnsongrass plant response rating: 62 g ai/ha, scale 0 to 100
Procedure, shortened: as §1

[16] = system: oilseed rape; assay: Test C preemergence; format: in vivo, Brassica napus; conditions: preemergence; for Plant response rating, Oilseed Rape: 125 g ai/ha, scale 0 to 100, 0 = no effect, 100 = complete control
Procedure, shortened: as §1

[17] = 31 g ai/ha, visual rating, scale 0 to 100 (0 no effect, 100 complete control), 13 to 15 days
[18] = 62 g ai/ha, scale 0 to 100 (0 no effect, 100 complete control), 13 to 15 days
[19] = 250 g ai/ha, scale 0 to 100, 0 is no effect, 100 is complete control
[20] = 250 g ai/ha, scale 0 to 100 (0 no effect, 100 complete control)
[21] = 125 g ai/ha, scale 0 to 100, 0 no effect, 100 complete control
[22] = 125 g ai/ha, visual injury, 0 to 100 scale, approx. 10 days
[23] = 500 g ai/ha, visual injury after approx. 10 days, 0 to 100 scale (0 no effect, 100 complete control)
[24] = Postemergence, 500 g ai/ha, 0 to 100 scale (0 no effect, 100 complete control)
[25] = postemergence, 125 g ai/ha, about 10 days, visual rating on 0 to 100 scale (0 no effect, 100 complete control)

## O=C(NC1CC1)c1cc(CCCl)n(Cc2ccnc(C(F)(F)F)c2)n1 [Compound 144]
[1]; [17]
  Ragweed plant response rating: 85
[1]; [18]
  Ragweed plant response rating: 90
[1]; 13 to 15 days
  Plant response rating, Ragweed: 95
[1]; [19]
  Ragweed plant response rating: 98
[2]; [17]
  Wheat plant response rating: 5
[2]; [18]
  Wheat plant response rating: 40
[2]; 13 to 15 days
  Plant response rating, Wheat: 80
[2]; [19]
  Wheat plant response rating: 90
[3]
  Pigweed plant response rating (0 to 100 scale): 100
  Pigweed plant response rating: 100
[4]
  Plant response rating (scale of 0 to 100 where 0 is no effect and 100 is complete control), Corn: 5
  Corn plant response rating: 10
[4]; [20]
  Plant response rating, Corn: 25
[4]; [21]
  Plant response rating, Corn: 15
[5]; [22]
  Barnyardgrass plant response rating: 100
[5]; [23]
  Barnyardgrass plant response rating: 100
[6]; Postemergence, 31 g ai/ha, visually evaluated after 13 to 15 days
  Plant response rating (scale of 0 to 100 where 0 is no effect and 100 is complete control), Waterhemp: 65
[6]
  Plant response rating, Waterhemp: 75
  Waterhemp plant response rating: 75
[7]; [17]
  Soybean plant response rating: 5
[7]; [18]
  Soybean plant response rating: 50
[7]; 13 to 15 days
  Plant response rating, Soybean: 80
[7]; [19]
  Soybean plant response rating: 98
[8]
  Plant response rating (scale of 0 to 100 where 0 is no effect and 100 is complete control), Lambsquarters: 60
  Lambsquarters plant response rating: 60
[8]; [20]
  Plant response rating, Lambsquarters: 95
[8]; [21]
  Plant response rating, Lambsquarters: 70
[9]; [24]
  Velvetleaf plant response rating: 90
[9]; [25]
  Velvetleaf plant response rating: 80
[10]; [17]
  Blackgrass plant response rating: 40
[10]; [18]
  Blackgrass plant response rating: 40
[10]; 13 to 15 days
  Plant response rating, Blackgrass: 90
[10]; [19]
  Blackgrass plant response rating: 90
[11]; [17]
  Foxtail, Giant plant response rating: 75
[11]; [18]
  Foxtail, Giant plant response rating: 100
[11]; 13 to 15 days
  Plant response rating, Foxtail, Giant: 100
[11]; [19]
  Foxtail, Giant plant response rating: 100
[12]
  Velvetleaf plant response rating (0 to 100 scale): 50
  Velvetleaf plant response rating: 100
[13]; [24]
  Pigweed plant response rating: 100
[13]; [25]
  Pigweed plant response rating: 100
[14]; [17]
  Johnsongrass plant response rating: 0
[14]; [18]
  Johnsongrass plant response rating: 35
[14]; 13 to 15 days
  Plant response rating, Johnsongrass: 75
[14]; [19]
  Johnsongrass plant response rating: 100
[15]
  Plant response rating (scale of 0 to 100 where 0 is no effect and 100 is complete control), Johnsongrass: 5
  Johnsongrass plant response rating: 5
[15]; [20]
  Plant response rating, Johnsongrass: 15
[15]; [21]
  Plant response rating, Johnsongrass: 10
[16]; [17]
  Oilseed Rape plant response rating: 80
[16]; [18]
  Oilseed Rape plant response rating: 95
[16]; 13 to 15 days
  Plant response rating, Oilseed Rape: 100
[16]; [19]
  Oilseed Rape plant response rating: 100

## CCOc1cc(C(=O)NOC(C)C)nn1Cc1ccnc(C(F)(F)F)c1 [Compound 153]
[1]; [17]
  Ragweed plant response rating: 50
[1]; [18]
  Ragweed plant response rating: 95
[1]; 13 to 15 days
  Plant response rating, Ragweed: 98
[1]; [19]
  Ragweed plant response rating: 98
[2]; [17]
  Wheat plant response rating: 15
[2]; [18]
  Wheat plant response rating: 85
[2]; 13 to 15 days
  Plant response rating, Wheat: 90
[2]; [19]
  Wheat plant response rating: 90
[3]
  Pigweed plant response rating (0 to 100 scale): 100
  Pigweed plant response rating: 100
[4]
  Plant response rating (scale of 0 to 100 where 0 is no effect and 100 is complete control), Corn: 5
  Corn plant response rating: 10
[4]; [20]
  Plant response rating, Corn: 20
[4]; [21]
  Plant response rating, Corn: 30
[5]; [22]
  Barnyardgrass plant response rating: 90
[5]; [23]
  Barnyardgrass plant response rating: 100
[6]
  Plant response rating, Waterhemp: 65
  Waterhemp plant response rating: 40
[7]; [17]
  Soybean plant response rating: 5
[7]; [18]
  Soybean plant response rating: 10
[7]; 13 to 15 days
  Plant response rating, Soybean: 45
[7]; [19]
  Soybean plant response rating: 80
[8]
  Plant response rating (scale of 0 to 100 where 0 is no effect and 100 is complete control), Lambsquarters: 65
  Lambsquarters plant response rating: 55
[8]; [20]
  Plant response rating, Lambsquarters: 85
[8]; [21]
  Plant response rating, Lambsquarters: 75
[9]; [24]
  Velvetleaf plant response rating: 100
[9]; [25]
  Velvetleaf plant response rating: 70
[10]; [17]
  Blackgrass plant response rating: 80
[10]; [18]
  Blackgrass plant response rating: 90
[10]; 13 to 15 days
  Plant response rating, Blackgrass: 90
[10]; [19]
  Blackgrass plant response rating: 90
[11]; [17]
  Foxtail, Giant plant response rating: 60
[11]; [18]
  Foxtail, Giant plant response rating: 85
[11]; 13 to 15 days
  Plant response rating, Foxtail, Giant: 100
[11]; [19]
  Foxtail, Giant plant response rating: 100
[12]
  Velvetleaf plant response rating (0 to 100 scale): 90
  Velvetleaf plant response rating: 100
[13]; [24]
  Pigweed plant response rating: 100
[13]; [25]
  Pigweed plant response rating: 100
[14]; [17]
  Johnsongrass plant response rating: 5
[14]; [18]
  Johnsongrass plant response rating: 35
[14]; 13 to 15 days
  Plant response rating, Johnsongrass: 75
[14]; [19]
  Johnsongrass plant response rating: 95
[15]
  Plant response rating (scale of 0 to 100 where 0 is no effect and 100 is complete control), Johnsongrass: 0
  Johnsongrass plant response rating: 5
[15]; [20]
  Plant response rating, Johnsongrass: 5
[15]; [21]
  Plant response rating, Johnsongrass: 0
[16]; [17]
  Oilseed Rape plant response rating: 60
[16]; [18]
  Oilseed Rape plant response rating: 95
[16]; 13 to 15 days
  Plant response rating, Oilseed Rape: 95
[16]; [19]
  Oilseed Rape plant response rating: 95

— US20150105252A1, “SUBSTITUTED PYRAZOLES AS HERBICIDES” (E I DU PONT DE NEMOURS AND COMPANY, priority 2013, published 2015)
